{"source": "patent US20230145868A1", "about": "“UREA INHIBITORS OF MICRO-RNA” (Board of Regents, The University of Texas System, priority 2020, published 2023)", "key": {"miR-10b [1]": {"tested_on": "miR-10b", "experiment": "Luciferase reporter assay of miR-10b inhibition, MCF7 cells", "type": "cell-based", "conditions": "Homo sapiens, MCF7, 48 h", "description": "(§1) To identify miR-10b inhibitors, a luciferase reporter system was designed with complementary oligonucleotides for miR-10b.This luciferase reporter would repress Renilla luciferase signal in the presence of a functional mature miR-10b. However, in the presence of a small molecule that can inhibit mature miR-10b expression or affect its downstream function, the luciferase expression is restored again.\n(§2) The PsiCHECK™-2 luciferase reporter vector was acquired from Promega™, Complementary oligonucleotides for hsa-miR-10b were designed based on the mature miRNA sequence and obtained from Thermo Fisher Scientific. In the design of the microRNA target sequence, several base pairs were added to have two different restriction sites recognizable by the enzyme SgfI at one side, and PmeI on the other (present in the vector as well). In addition, the insert was designed with a restriction site for SacI enzyme in order to have an additional site to digest the vector when monitoring colonies for the presence/absence of the insert. The designed oligonucleotides were annealed as follows: Complementary strands were mixed at a 1:1 molar ratio in a micro centrifuge tube. The mixture was diluted to a final concentration of 1 pmol/μl with a buffer solution of 10 mM Tris, 1 mM EDTA, and 50 mM NaCl (pH 8.0). Mixes were incubated at 95° C. for 5 min, and then the heat was reduced gradually for 70 min, until reaching 4° C. The annealed oligonucleotides were digested along with the PsiCHECK™2 vector with SgfI and PmeI and ligated at the 3′-UTR (downstream) of the Renilla luciferase reporter gene in the PsiCHECK™-2vector. Insert sequences were further confirmed in two ways: enzymatic digestion and sequencing.\n(§3) MCF7 cells were seeded 24 h prior to transfection in 96 well plates (2.0×10^4 cells/well). For testing the sensitivity of the assay, antagomiRs and pre-miRs against miR-10b were used at a final concentration of 100 nM. For testing small molecule miRNA inhibitors, the compounds of interest were added to a final concentration of 10 μM. The assay was done in MCF7 or MDA-MB-231 cells at approximately 60% confluence using Lipofectamine in Opti-Mem media with the final vector concentration of 250 ng/mL. All transfections were performed in triplicate for statistical analysis. The cells were incubated at 37° C. for 6 h, followed by replacement of the transfected media with fresh media. After 48 h incubation, the media was removed, and cells were lysed and assayed with a Dual Luciferase Assay Kit (Promega) using a Vi-Tech luminometer. The ratio of Renilla to firefly luciferase expression was calculated for each of the triplicates."}, "miR-10b [2]": {"tested_on": "miR-10b", "experiment": "Luciferase reporter assay of miR-10b inhibition, MDA-MB-231 cells", "type": "cell-based", "conditions": "Homo sapiens, MDA-MB-231, 48 h", "description": "as §1, §2, §3"}, "[3]": {"experiment": "Microsomal stability assay, mouse", "type": "in vitro ADME", "conditions": "mouse, liver microsomes, pH 7.4, mouse liver microsomes; 1 μM test compound; unit printed in b356 only", "experimental": "(§4) The liver microsomal incubation mixture was composed of liver microsomes (with a concentration of 0.5 mg microsomal protein/ml), the test compound (1 μM), MgCl2 (3 mM), EDTA (1 mM) in potassium phosphate buffer (100 mM, pH 7.4). Control substrates used were Midazolam and Ketanserin. The reaction was initiated with the addition of an NADPH regeneration solution (1.3 mM NADPH) and maintained at 37° C. with shaking. At five sequential time points ranging from 0 to 45 min, aliquots of the mixture (50 μL) were removed and quenched with acetonitrile (100 μL) containing an internal standard control (imipramine) Samples were analyzed after vortexing and centrifugation by liquid chromatography-mass spectrometry (LC-MS/MS). The in vitro t1/2 was then calculated and clearance followed literature."}, "[4]": {"experiment": "Microsomal stability assay, rat", "type": "in vitro ADME", "conditions": "rat, liver microsomes, pH 7.4, rat liver microsomes; 1 μM test compound; unit printed in b356 only", "experimental": "as §4"}, "[5]": {"experiment": "Microsomal stability assay, human", "type": "in vitro ADME", "conditions": "pH 7.4; human liver microsomes; 1 μM test compound; unit printed in b356 only", "experimental": "as §4"}}, "data": [{"smiles": "Cc1ccc(F)c(NC(=O)Nc2ccc(-c3cccc4[nH]nc(N)c34)cc2)c1", "note": "[Example 10, 1-(4-(3-amino-1H-indazol-4-yl)phenyl)-3-(2-fluoro-5-methylphenyl)urea, reference compound]", "values": [{"measurement": "fold induction at 10 µM", "setting": "miR-10b [1]; Table 3, MCF7, 10 μM compound, vs negative control (DMSO), mean of triplicate, read-out: n-fold increase in luciferase expression, Mean", "value": 2.5}, {"measurement": "fold induction at 10 µM", "setting": "miR-10b [1]; Table 3, MCF7, 10 μM compound, vs negative control (DMSO), replicate #1, read-out: n-fold increase in luciferase expression, #1", "value": 2.74}, {"measurement": "fold induction at 10 µM", "setting": "miR-10b [1]; Table 3, MCF7, 10 μM compound, vs negative control (DMSO), replicate #2, read-out: n-fold increase in luciferase expression, #2", "value": 2.52}, {"measurement": "fold induction at 10 µM", "setting": "miR-10b [1]; Table 3, MCF7, 10 μM compound, vs negative control (DMSO), replicate #3, read-out: n-fold increase in luciferase expression, #3", "value": 2.25}, {"measurement": "fold induction at 10 µM", "setting": "miR-10b [1]; Table 4, MCF7, 10 μM compound, vs negative control (DMSO), mean of triplicate, read-out: n-fold increase in luciferase expression, Mean", "value": 1.97}, {"measurement": "fold induction at 10 µM", "setting": "miR-10b [1]; Table 4, MCF7, 10 μM compound, vs negative control (DMSO), replicate #1, read-out: n-fold increase in luciferase expression, #1", "value": 2.56}, {"measurement": "fold induction at 10 µM", "setting": "miR-10b [1]; Table 4, MCF7, 10 μM compound, vs negative control (DMSO), replicate #2, read-out: n-fold increase in luciferase expression, #2", "value": 1.58}, {"measurement": "fold induction at 10 µM", "setting": "miR-10b [1]; Table 4, MCF7, 10 μM compound, vs negative control (DMSO), replicate #3, read-out: n-fold increase in luciferase expression, #3", "value": 1.78}, {"measurement": "fold induction at 10 µM", "setting": "miR-10b [1]; Table 6, MCF7, second biological replicant, 10 μM compound, mean of triplicate, read-out: n-fold increase in luciferase expression, Mean", "value": 17.9}, {"measurement": "fold induction at 10 µM", "setting": "miR-10b [1]; Table 6, MCF7, second biological replicant, 10 μM compound, replicate #1, read-out: n-fold increase in luciferase expression, #1", "value": 25.6}, {"measurement": "fold induction at 10 µM", "setting": "miR-10b [1]; Table 6, MCF7, second biological replicant, 10 μM compound, replicate #2, read-out: n-fold increase in luciferase expression, #2", "value": 14.6}, {"measurement": "fold induction at 10 µM", "setting": "miR-10b [1]; Table 6, MCF7, second biological replicant, 10 μM compound, replicate #3, read-out: n-fold increase in luciferase expression, #3", "value": 13.4}, {"measurement": "fold induction at 10 µM", "setting": "miR-10b [2]; Table 5, MDA-MB-231, 10 μM compound, vs negative control (DMSO), mean of triplicate, read-out: n-fold increase in luciferase expression, Mean", "value": 1.87}, {"measurement": "fold induction at 10 µM", "setting": "miR-10b [2]; Table 5, MDA-MB-231, 10 μM compound, vs negative control (DMSO), replicate #1, read-out: n-fold increase in luciferase expression, #1", "value": 1.51}, {"measurement": "fold induction at 10 µM", "setting": "miR-10b [2]; Table 5, MDA-MB-231, 10 μM compound, vs negative control (DMSO), replicate #2, read-out: n-fold increase in luciferase expression, #2", "value": 1.14}, {"measurement": "fold induction at 10 µM", "setting": "miR-10b [2]; Table 5, MDA-MB-231, 10 μM compound, vs negative control (DMSO), replicate #3, read-out: n-fold increase in luciferase expression, #3", "value": 2.95}, {"measurement": "fold induction at 10 µM", "setting": "miR-10b [2]; Table 7, MDA-MB-231, second biological replicant, 10 μM compound, mean of triplicate, read-out: n-fold increase in luciferase expression, Mean", "value": 1.97}, {"measurement": "fold induction at 10 µM", "setting": "miR-10b [2]; Table 7, MDA-MB-231, second biological replicant, 10 μM compound, replicate #1, read-out: n-fold increase in luciferase expression, #1", "value": 2.99}, {"measurement": "fold induction at 10 µM", "setting": "miR-10b [2]; Table 7, MDA-MB-231, second biological replicant, 10 μM compound, replicate #2, read-out: n-fold increase in luciferase expression, #2", "value": 2.24}, {"measurement": "fold induction at 10 µM", "setting": "miR-10b [2]; Table 7, MDA-MB-231, second biological replicant, 10 μM compound, replicate #3, read-out: n-fold increase in luciferase expression, #3", "value": 0.69}, {"measurement": "CLint scaled at 1 μM", "setting": "[3]", "value": 86.5, "unit": "mL/min/kg"}, {"measurement": "half-life at 1 μM", "setting": "[3]", "value": 1.05, "unit": "h"}, {"measurement": "CLint scaled at 1 μM", "setting": "[4]", "value": 20.4, "unit": "mL/min/kg"}, {"measurement": "half-life at 1 μM", "setting": "[4]", "value": 2.03, "unit": "h"}, {"measurement": "CLint scaled at 1 μM", "setting": "[5]", "value": 8.8, "unit": "mL/min/kg"}, {"measurement": "half-life at 1 μM", "setting": "[5]", "value": 3.28, "unit": "h"}]}]}
